According to PMC5053573, “Structure-Based Design of Tetrahydroisoquinoline-7-carboxamides as Selective Discoidin Domain Receptor 1 (DDR1) Inhibitors” (Journal of Medicinal Chemistry, 2016):

Columns and labels:
Test in all cases: biochemical
Conditions in all cases: read-out: %Ctrl @ 1000nM
[1] = molecular target: T1, PKAC-alpha (Homo sapiens, UniProt P17612)
T1 construct: gene PRKACA

[2] = molecular target: FGFR4 (Homo sapiens, UniProt P22455)
[3] = molecular target: CAMK1 (Homo sapiens, UniProt Q14012)
Sequence of CAMK1 (Q14012 whole entry): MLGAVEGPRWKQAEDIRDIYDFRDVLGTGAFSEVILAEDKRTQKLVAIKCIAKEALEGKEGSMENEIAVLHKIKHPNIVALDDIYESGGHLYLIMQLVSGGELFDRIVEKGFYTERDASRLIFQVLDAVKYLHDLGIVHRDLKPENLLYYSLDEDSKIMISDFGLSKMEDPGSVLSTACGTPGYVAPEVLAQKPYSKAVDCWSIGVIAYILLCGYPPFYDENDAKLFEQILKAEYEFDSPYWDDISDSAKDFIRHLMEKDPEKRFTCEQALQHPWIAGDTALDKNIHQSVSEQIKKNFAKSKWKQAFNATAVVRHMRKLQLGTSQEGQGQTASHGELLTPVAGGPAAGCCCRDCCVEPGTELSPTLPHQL

[4] = molecular target: T2, NDR2 (Homo sapiens, UniProt Q9Y2H1)
T2 construct: gene STK38L
T2 sequence (Q9Y2H1 whole entry): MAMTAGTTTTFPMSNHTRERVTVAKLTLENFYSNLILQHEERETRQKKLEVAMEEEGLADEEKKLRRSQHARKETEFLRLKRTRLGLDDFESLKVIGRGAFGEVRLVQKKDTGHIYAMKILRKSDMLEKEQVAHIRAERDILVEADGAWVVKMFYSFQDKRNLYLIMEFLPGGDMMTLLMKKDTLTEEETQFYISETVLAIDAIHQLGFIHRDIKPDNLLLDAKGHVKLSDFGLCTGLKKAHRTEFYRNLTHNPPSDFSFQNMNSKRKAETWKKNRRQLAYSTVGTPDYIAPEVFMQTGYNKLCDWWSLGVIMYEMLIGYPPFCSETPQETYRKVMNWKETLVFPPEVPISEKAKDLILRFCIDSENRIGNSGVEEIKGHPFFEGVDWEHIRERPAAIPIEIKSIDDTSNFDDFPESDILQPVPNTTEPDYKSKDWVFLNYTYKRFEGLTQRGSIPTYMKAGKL

[5] = molecular target: JAK3(JH1domain-catalytic) (Homo sapiens, UniProt P52333)
[6] = molecular target: EGFR(L747-S752del, P753S) (Homo sapiens, UniProt P00533, DEL747-752/P753S)
[7] = molecular target: KIT(V559D) (Homo sapiens, UniProt P10721, V559D)
Sequence of KIT(V559D) (P10721 whole entry V559D): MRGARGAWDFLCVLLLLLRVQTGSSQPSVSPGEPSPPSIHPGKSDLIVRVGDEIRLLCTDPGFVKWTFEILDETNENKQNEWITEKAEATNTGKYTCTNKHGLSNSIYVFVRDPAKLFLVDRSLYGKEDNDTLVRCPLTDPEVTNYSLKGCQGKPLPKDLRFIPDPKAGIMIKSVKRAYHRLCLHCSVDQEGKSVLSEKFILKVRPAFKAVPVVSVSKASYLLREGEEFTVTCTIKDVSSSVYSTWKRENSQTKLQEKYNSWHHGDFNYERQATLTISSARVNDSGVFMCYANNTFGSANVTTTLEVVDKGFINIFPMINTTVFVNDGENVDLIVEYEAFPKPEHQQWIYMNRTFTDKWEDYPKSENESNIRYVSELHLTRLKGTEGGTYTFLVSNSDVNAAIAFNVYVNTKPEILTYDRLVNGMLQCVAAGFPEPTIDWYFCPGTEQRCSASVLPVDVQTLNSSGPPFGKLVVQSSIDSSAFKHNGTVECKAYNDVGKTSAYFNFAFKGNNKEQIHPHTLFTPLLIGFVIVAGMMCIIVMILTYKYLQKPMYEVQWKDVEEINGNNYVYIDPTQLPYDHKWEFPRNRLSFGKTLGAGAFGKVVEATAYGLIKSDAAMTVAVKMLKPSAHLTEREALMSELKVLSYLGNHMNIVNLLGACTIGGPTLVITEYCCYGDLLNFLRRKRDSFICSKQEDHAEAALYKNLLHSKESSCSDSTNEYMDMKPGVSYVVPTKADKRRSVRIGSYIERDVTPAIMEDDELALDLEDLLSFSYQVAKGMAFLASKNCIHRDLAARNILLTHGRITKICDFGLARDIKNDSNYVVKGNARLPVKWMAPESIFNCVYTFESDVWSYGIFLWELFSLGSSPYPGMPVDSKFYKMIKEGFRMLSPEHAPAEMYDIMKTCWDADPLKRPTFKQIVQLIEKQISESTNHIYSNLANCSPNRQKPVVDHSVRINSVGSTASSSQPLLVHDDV

[8] = molecular target: T3, ERK8 (Homo sapiens, UniProt Q8TD08)
T3 construct: gene MAPK15

[9] = molecular target: PRKCH (Homo sapiens, UniProt P24723)
[10] = molecular target: SGK2 (Homo sapiens, UniProt Q9HBY8)
[11] = molecular target: ABL1(T315I)-nonphosphorylated (Homo sapiens, UniProt P00519, T315I)
[12] = molecular target: AAK1 (Homo sapiens, UniProt Q2M2I8)
Sequence of AAK1 (Q2M2I8 whole entry): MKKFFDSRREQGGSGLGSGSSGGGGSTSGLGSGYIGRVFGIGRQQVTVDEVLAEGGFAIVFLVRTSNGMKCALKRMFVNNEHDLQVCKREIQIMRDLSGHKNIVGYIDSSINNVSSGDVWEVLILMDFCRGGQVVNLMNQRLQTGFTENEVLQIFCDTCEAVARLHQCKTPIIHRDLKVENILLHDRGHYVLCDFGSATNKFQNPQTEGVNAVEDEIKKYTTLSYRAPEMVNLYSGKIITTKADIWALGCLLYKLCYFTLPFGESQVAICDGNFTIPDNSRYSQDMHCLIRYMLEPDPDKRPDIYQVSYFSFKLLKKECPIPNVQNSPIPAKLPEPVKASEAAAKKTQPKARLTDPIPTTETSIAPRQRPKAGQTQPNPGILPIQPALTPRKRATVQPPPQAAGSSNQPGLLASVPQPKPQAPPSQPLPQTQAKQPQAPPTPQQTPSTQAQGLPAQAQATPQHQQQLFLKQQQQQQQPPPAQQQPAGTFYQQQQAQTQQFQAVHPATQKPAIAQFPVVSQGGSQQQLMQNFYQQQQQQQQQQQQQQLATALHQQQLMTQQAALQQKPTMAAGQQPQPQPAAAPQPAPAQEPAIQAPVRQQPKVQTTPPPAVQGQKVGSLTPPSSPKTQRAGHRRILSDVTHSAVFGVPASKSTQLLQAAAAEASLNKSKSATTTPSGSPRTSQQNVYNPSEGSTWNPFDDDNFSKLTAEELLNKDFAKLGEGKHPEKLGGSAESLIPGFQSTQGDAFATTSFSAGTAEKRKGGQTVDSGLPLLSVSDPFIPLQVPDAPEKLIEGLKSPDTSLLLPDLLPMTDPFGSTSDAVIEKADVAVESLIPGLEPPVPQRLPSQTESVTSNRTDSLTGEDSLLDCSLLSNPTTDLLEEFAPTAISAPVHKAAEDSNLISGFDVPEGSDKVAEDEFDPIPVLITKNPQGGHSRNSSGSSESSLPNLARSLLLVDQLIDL

[13] = molecular target: EPHA5 (Homo sapiens, UniProt P54756)
[14] = molecular target: EPHB3 (Homo sapiens, UniProt P54753)
[15] = molecular target: CDK8 (Homo sapiens, UniProt P49336)
Sequence of CDK8 (P49336 whole entry): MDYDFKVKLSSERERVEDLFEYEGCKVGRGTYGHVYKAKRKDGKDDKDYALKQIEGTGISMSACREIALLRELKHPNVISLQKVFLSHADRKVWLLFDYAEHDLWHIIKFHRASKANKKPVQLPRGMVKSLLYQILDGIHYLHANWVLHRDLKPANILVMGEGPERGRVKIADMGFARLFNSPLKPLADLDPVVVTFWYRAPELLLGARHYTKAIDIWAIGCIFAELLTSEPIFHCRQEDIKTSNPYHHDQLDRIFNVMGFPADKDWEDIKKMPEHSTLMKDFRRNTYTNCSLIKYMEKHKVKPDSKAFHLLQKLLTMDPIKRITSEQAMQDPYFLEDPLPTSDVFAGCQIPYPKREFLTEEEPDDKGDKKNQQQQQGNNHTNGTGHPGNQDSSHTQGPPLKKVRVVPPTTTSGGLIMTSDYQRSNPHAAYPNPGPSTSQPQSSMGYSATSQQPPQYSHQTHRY

[16] = molecular target: IGF1R (Homo sapiens, UniProt P08069)
[17] = molecular target: FGFR1 (Homo sapiens, UniProt P11362)
[18] = molecular target: T4, MST3 (Homo sapiens, UniProt Q9Y6E0)
T4 construct: gene STK24

[19] = molecular target: ACVRL1 (Homo sapiens, UniProt P37023)
[20] = molecular target: EIF2AK1 (Homo sapiens, UniProt Q9BQI3)
Sequence of EIF2AK1 (Q9BQI3 whole entry): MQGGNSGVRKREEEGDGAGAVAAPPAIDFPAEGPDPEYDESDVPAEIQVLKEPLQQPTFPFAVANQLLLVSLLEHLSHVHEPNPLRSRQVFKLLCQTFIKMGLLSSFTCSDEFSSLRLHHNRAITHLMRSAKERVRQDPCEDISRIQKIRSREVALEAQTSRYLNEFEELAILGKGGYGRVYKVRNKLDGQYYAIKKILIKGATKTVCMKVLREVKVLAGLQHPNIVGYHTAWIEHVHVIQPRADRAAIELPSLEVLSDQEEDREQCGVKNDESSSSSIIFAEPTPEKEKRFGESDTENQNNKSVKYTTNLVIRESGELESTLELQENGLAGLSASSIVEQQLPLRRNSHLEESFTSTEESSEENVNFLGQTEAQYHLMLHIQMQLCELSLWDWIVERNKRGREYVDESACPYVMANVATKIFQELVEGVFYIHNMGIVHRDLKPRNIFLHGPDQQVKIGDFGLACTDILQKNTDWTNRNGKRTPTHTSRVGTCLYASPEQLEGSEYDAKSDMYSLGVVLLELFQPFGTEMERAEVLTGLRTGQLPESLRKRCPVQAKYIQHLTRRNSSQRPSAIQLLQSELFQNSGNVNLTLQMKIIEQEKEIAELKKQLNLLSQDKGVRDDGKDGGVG

[21] = molecular target: T5, PAK7 (Homo sapiens, UniProt Q9P286)
T5 construct: gene PAK5

[22] = molecular target: PAK6 (Homo sapiens, UniProt Q9NQU5)
[23] = molecular target: PIM2 (Homo sapiens, UniProt Q9P1W9)
[24] = molecular target: ALK(C1156Y) (Homo sapiens, UniProt Q9UM73, C1156Y)
[25] = molecular target: HIPK1 (Homo sapiens, UniProt Q86Z02)
[26] = molecular target: EGFR(L747-T751del,Sins) (Homo sapiens, UniProt P00533, DEL747-750/T751S)
[27] = molecular target: RPS6KA4(Kin.Dom.1-N-terminal) (Homo sapiens, UniProt O75676)
[28] = molecular target: PRKCD (Homo sapiens, UniProt Q05655)
[29] = molecular target: T6, DMPK2 (Homo sapiens, UniProt Q6DT37)
T6 construct: gene CDC42BPG

[30] = molecular target: T7, OSR1 (Homo sapiens, UniProt O95747)
T7 construct: gene OXSR1

[31] = molecular target: FLT3(K663Q) (Homo sapiens, UniProt P36888, K663Q)
[32] = molecular target: T8, MEK5 (Homo sapiens, UniProt Q13163)
T8 construct: gene MAP2K5

[33] = molecular target: T9, SgK110 (Homo sapiens, UniProt P0C264)
T9 construct: gene SBK3
T9 sequence (P0C264 whole entry): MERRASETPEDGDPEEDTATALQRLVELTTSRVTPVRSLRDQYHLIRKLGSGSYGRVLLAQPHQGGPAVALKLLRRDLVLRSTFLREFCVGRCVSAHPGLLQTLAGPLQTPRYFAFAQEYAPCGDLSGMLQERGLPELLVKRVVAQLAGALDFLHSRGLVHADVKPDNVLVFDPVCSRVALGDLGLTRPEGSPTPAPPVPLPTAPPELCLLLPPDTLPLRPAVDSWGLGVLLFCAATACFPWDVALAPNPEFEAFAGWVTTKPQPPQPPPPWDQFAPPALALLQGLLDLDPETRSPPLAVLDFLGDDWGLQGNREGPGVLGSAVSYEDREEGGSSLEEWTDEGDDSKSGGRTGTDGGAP

[34] = molecular target: MAP3K3 (Homo sapiens, UniProt Q99759)

Sequence of FGFR4 (P22455 whole entry): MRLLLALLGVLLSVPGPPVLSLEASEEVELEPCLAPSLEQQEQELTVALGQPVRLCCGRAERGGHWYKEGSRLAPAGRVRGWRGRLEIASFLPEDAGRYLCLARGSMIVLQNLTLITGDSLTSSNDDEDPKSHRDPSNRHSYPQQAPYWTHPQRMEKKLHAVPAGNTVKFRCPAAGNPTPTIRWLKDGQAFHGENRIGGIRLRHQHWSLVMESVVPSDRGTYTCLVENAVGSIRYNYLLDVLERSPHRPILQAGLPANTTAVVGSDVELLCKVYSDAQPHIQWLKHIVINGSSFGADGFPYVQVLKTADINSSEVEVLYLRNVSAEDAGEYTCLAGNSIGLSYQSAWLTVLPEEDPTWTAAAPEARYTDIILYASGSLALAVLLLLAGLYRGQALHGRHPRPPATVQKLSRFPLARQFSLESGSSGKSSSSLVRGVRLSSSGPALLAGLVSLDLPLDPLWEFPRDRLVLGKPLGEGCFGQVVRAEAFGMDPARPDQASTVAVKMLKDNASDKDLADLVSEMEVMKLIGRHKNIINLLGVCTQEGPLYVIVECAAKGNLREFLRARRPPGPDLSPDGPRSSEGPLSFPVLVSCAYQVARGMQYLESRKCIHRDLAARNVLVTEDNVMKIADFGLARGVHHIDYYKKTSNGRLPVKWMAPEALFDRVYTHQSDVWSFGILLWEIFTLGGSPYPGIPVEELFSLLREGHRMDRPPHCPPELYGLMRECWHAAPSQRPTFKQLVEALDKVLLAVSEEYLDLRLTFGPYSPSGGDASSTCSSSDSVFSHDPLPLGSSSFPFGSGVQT

`Cc1cn(-c2cc(NC(=O)c3ccc4c(c3)CN(c3cncnc3)C[C@@H]4C)cc(C(F)(F)F)c2)cn1` [Compound 6j] gave a remaining activity at 1 µM [1] of 87%, a remaining activity at 1 µM [2] of 85% and a remaining activity at 1 µM [3] of 84%. It also gave a remaining activity at 1 µM [4] of 100%, a remaining activity at 1 µM [5] of 100% and a remaining activity at 1 µM [6] of 83%. It also gave a remaining activity at 1 µM [7] of 80%, a remaining activity at 1 µM [8] of 84% and a remaining activity at 1 µM [9] of 97%. The remaining activity at 1 µM [10] was 100%, the remaining activity at 1 µM [11] was 100% and the remaining activity at 1 µM [12] was 77%. It also gave a remaining activity at 1 µM [13] of 74%, a remaining activity at 1 µM [14] of 82% and a remaining activity at 1 µM [15] of 37%. It also gave a remaining activity at 1 µM [16] of 100%, a remaining activity at 1 µM [17] of 79% and a remaining activity at 1 µM [18] of 64%. It also gave a remaining activity at 1 µM [19] of 76%, a remaining activity at 1 µM [20] of 92% and a remaining activity at 1 µM [21] of 98%. The remaining activity at 1 µM [22] was 85%, the remaining activity at 1 µM [23] was 97% and the remaining activity at 1 µM [24] was 100%. For the same compound, the remaining activity at 1 µM [25] was 85%, the remaining activity at 1 µM [26] was 97% and the remaining activity at 1 µM [27] was 87%. It also gave a remaining activity at 1 µM [28] of 94%, a remaining activity at 1 µM [29] of 100% and a remaining activity at 1 µM [30] of 100%. For the same compound, the remaining activity at 1 µM [31] was 62%, the remaining activity at 1 µM [32] was 100% and the remaining activity at 1 µM [33] was 98%. The remaining activity at 1 µM [34] was 85%.
